Where a name gives a salt, the structure may show the parent alone. Activity calls are given as the source filed them.
Assays:
[1] = general cell-killing toxicity readout – plate reader, dry powder samples, cytotoxicity control for PAX8 inhibitor project, dose response (AID 743021); format: functional, cell-based
Protein skinhead-1 = molecular target: T1, Protein skinhead-1 (Caenorhabditis elegans, UniProt P34707); format: functional
T1 sequence (P34707 whole entry): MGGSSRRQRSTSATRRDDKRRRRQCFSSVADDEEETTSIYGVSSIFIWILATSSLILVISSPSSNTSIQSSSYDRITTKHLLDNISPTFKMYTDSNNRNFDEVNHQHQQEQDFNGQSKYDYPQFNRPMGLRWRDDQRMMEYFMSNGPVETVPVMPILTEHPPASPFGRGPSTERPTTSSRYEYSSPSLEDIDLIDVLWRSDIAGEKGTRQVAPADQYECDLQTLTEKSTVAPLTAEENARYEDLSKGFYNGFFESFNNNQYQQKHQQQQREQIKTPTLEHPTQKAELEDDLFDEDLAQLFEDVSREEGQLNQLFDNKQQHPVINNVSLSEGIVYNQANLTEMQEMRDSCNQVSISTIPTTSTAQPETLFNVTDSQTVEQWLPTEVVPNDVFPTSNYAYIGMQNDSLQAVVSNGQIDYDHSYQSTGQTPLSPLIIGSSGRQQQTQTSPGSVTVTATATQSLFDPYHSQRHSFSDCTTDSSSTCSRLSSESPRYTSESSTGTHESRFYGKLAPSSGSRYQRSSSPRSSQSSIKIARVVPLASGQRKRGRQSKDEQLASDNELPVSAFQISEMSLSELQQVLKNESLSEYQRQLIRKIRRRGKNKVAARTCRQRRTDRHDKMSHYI

HEK293 [2] = experiment: EBV LMP1 TES2 canonical NF-kB signalling blockers – cell-based, HEK293, luciferase, cherry-pick, dose response (AID 588343); format: functional; settings: Homo sapiens
Paired box protein Pax-8 = Paired box protein Pax-8 (Homo sapiens, UniProt Q06710); experiment: PAX8 transcriptional activity inhibition in RMG-I – RMG-I cells, luciferase, cherry-pick, dose response (AID 687027); format: functional, cell-based;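 note: luciferase reporter driven by Pax8 target thyroperoxidase promoter measured by SteadyGlo luminescence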
Sequence of Paired box protein Pax-8 (Q06710 whole entry): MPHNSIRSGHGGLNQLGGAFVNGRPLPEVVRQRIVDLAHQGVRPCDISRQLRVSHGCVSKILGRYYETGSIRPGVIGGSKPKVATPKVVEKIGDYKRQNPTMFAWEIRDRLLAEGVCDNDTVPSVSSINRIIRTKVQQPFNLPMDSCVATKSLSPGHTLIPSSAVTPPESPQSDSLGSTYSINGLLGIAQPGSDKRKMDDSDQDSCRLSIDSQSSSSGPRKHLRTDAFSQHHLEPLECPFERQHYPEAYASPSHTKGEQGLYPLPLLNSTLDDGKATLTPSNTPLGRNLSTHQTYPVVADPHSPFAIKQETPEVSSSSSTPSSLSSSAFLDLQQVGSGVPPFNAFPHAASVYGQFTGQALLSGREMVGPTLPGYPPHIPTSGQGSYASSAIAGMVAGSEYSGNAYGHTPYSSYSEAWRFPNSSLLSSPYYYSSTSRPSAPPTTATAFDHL

[3] = molecular target: Voltage-gated inwardly rectifying potassium channel KCNH2 (Homo sapiens, UniProt Q12809); settings: Potency;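 note: confirmatory quantitative high-throughput screen measuring inhibition of hERG channel activity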
Sequence of Voltage-gated inwardly rectifying potassium channel KCNH2 (Q12809 whole entry): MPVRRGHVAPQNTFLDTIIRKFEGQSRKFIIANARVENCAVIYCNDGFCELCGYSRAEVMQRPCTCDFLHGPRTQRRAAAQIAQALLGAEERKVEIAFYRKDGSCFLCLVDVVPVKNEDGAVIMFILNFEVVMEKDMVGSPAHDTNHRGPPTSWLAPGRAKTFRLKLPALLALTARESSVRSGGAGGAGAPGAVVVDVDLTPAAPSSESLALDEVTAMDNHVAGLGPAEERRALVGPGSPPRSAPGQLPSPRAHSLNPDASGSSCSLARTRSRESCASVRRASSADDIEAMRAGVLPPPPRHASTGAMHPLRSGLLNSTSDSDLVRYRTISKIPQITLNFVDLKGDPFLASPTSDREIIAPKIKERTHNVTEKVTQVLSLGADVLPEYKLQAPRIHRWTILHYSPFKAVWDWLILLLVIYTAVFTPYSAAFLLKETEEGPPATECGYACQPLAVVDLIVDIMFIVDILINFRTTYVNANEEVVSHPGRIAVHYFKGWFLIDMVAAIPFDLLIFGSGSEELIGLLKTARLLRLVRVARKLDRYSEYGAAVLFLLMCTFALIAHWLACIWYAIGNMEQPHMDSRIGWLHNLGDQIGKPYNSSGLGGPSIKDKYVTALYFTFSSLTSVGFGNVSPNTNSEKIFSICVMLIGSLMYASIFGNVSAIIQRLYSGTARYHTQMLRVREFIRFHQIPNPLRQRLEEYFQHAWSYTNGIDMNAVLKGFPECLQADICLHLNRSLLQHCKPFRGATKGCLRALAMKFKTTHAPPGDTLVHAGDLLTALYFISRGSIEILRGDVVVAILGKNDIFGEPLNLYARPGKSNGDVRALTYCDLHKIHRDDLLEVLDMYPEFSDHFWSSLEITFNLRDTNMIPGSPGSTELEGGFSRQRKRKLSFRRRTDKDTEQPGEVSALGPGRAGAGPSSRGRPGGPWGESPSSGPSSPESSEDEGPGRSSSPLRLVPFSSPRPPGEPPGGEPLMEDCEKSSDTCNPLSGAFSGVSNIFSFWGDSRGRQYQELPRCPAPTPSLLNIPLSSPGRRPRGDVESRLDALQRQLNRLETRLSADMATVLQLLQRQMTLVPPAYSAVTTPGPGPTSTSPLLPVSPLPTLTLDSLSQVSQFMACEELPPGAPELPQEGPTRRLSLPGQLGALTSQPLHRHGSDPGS

Kallikrein-7 = Kallikrein-7 (Homo sapiens, UniProt P49862); experiment: Fluorescence Intensity-based biochemical primary high throughput dose response assay to identify activators of kallikrein-7 (K7) zymogen.
Sequence of Kallikrein-7 (P49862 whole entry): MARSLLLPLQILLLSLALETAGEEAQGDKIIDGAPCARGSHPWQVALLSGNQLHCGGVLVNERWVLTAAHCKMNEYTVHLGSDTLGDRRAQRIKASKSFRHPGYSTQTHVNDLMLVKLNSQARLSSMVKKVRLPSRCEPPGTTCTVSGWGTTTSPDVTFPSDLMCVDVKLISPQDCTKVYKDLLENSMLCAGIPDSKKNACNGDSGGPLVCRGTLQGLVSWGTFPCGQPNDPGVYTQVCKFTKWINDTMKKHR

[4] = growth inhibition of PfATP4-mutant resistant parasites – NITD609-resistant line, SYBR Green, dry powder, dose response (AID 1159571); format: functional, cell-based;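 note: parasites synchronized at ring stage by sorbitol before testing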
[5] = toxicity to human HepG2 hepatoma cells – cell-based, plate reader, dry powder samples, cytotoxicity control, dose response (AID 1159569); format: functional;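 note: inhibitor potency with signal falling toward the positive control level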
[6] = growth inhibition of yeast DHODH-expressing 3D7 parasites – SYBR Green, dry powder samples, dose response (AID 1159570); format: functional, cell-based;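 note: parasite growth measured after 72 hours of compound exposure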
[7] = P. falciparum Dd2 growth inhibitors, dose response, SYBR Green, cherry-picked samples (AID 1159567); format: functional, cell-based
[8] = Dd2 malaria parasite growth inhibition potency – SYBR Green, dry powder samples, dose response (AID 1159566); format: functional, cell-based;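 note: potency for growth inhibition with lower SYBR green DNA signal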
HEK293 [9] = experiment: cells; settings: Homo sapiens
CHO = CHO cell viability loss, potency – luminescence, cytotoxicity control for TLR9-MyD88 binding inhibitor project, dose response (AID 588339); format: functional, cell-based, hamster; settings: Cricetulus griseus;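 note: CHO cells stably coexpressing TLR9 and MyD88 fusions from primary screen; compound exposure lasted 48 hours before viability readout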
[10] = molecular target: T2, RNA-binding protein pos-1 (Caenorhabditis elegans, UniProt G5EF15); experiment: disruptors of C. elegans POS-1 RNA interaction – biochemical, fluorescence polarization, dose response (AID 1964);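 note: purified POS-1 fused to maltose binding protein made in E. coli; potency of compounds blocking POS-1 binding to fluorescent RNA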
T2 sequence (G5EF15 whole entry): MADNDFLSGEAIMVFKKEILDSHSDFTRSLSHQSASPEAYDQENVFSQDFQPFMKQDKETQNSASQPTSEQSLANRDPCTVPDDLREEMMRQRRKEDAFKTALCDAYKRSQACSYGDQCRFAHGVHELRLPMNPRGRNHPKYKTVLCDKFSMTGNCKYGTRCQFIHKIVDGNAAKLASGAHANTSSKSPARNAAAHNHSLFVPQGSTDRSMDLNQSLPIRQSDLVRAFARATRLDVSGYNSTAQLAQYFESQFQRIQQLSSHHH

HEK293 [11] = experiment: cells; settings: Homo sapiens; remark: listed apart in the source
[12] = molecular target: T3, Zinc finger protein mex-5 (Caenorhabditis elegans, UniProt Q9XUB2); experiment: potency of MEX-5 RNA-binding blockers – biochemical, C. elegans, fluorescence polarization, dose response (AID 1960)
T3 sequence (Q9XUB2 whole entry): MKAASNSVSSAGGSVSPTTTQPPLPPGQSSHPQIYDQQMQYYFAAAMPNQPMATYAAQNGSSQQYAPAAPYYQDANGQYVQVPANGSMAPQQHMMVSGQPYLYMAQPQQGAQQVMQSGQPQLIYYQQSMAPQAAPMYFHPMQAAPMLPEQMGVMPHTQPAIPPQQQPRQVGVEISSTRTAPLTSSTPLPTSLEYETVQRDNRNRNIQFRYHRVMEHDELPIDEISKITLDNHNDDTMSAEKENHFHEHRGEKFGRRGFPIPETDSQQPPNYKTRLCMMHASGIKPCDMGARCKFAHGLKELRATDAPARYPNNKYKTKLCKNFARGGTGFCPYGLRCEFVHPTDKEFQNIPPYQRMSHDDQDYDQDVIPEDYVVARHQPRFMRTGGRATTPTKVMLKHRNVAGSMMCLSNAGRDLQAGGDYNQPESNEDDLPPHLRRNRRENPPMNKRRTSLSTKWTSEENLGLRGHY

[13] = HepG2 cell cytotoxicity, dose response, cytotoxicity control for non-replicating M. tuberculosis project (AID 489018); format: functional; settings: Mycobacterium tuberculosis
[14] = molecular target: T4, Heat shock factor protein 1 (Mus musculus, UniProt P38532); experiment: enhancement of HSF1-driven luciferase signal – cell-based, NIH3T3, luminescence, dose retest, confirmation (AID 435004); format: functional;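 note: stress induced by proteasome inhibitor MG132 added 30 min after compound; luciferase reporter driven by HSF1 response element in NIH3T3 cells; actives raise luminescence as potentiators of the MG132 stress response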
T4 sequence (P38532 whole entry): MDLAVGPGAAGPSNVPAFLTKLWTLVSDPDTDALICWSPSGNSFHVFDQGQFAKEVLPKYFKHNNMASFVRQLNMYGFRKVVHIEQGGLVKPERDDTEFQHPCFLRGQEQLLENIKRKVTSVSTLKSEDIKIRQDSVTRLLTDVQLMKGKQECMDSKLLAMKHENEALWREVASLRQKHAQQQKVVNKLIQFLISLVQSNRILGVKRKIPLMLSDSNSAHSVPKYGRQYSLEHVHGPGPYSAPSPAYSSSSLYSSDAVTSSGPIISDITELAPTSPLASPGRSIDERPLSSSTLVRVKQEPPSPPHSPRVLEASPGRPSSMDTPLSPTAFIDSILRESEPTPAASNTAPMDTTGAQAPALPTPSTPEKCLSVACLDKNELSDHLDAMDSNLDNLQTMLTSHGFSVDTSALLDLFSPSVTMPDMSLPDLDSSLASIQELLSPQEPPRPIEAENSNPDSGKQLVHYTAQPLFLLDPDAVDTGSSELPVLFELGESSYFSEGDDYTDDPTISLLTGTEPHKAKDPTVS

[15] = Vero E6 cell cytotoxicity, dose response, cytotoxicity control for non-replicating M. tuberculosis project, secondary assay (AID 492998); format: functional, VeroE6; settings: Vero C1008
cells = format: functional
[16] = THP-1 cell cytotoxicity, dose response, cytotoxicity control for non-replicating M. tuberculosis project (AID 489025); format: functional
Cytochrome P450 3A4 = Cytochrome P450 3A4 (Homo sapiens, UniProt P08684);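 note: CYP3A4 tested as one member of a cytochrome P450 panel screen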
Sequence of Cytochrome P450 3A4 (P08684 whole entry): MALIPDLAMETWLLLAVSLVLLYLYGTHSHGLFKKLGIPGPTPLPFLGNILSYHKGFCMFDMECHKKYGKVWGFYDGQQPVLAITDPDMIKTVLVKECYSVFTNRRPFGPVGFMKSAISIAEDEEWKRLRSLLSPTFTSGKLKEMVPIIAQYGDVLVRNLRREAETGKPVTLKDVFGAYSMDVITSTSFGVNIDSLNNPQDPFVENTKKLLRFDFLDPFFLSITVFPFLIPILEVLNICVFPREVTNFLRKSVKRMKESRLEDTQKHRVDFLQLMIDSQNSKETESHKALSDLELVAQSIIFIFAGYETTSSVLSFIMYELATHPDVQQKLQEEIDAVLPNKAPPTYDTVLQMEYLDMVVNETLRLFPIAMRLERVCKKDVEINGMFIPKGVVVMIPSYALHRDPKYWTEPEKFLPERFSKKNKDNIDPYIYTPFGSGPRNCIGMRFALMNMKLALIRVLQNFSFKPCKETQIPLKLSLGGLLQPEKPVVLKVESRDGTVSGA

Cytochrome P450 2D6 = Cytochrome P450 2D6 (Homo sapiens, UniProt P10635);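 note: CYP2D6 member of a cytochrome P450 panel assay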
Sequence of Cytochrome P450 2D6 (P10635 whole entry): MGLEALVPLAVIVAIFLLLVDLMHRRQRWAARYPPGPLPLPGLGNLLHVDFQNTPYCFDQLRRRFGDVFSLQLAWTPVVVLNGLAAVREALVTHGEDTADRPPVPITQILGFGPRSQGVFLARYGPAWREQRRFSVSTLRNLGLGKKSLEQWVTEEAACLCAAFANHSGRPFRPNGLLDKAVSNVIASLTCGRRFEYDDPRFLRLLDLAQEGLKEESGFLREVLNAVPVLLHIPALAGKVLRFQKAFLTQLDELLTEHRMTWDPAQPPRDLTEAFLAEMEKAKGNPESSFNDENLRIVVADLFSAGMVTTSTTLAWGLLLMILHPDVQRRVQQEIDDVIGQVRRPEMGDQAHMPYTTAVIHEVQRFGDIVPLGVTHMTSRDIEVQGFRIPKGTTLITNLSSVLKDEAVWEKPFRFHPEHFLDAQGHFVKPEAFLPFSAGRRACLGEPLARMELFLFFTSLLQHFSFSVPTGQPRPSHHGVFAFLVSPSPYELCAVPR

In the case of `O=c1cc(-c2ccccc2)oc2ccc3ccccc3c12` [BETA-NAPHTHOFLAVONE], the AC50 [1] is reported as 29.2 µM (active), the IC50 (Protein skinhead-1) is reported as > 100 µM (inactive) and the AC50 (HEK293 [2]) is reported as 0.646 µM (active). The AC50 (Paired box protein Pax-8) was 5.9 µM (active).
With `CN(C)CCC(c1ccccc1)c1ccccn1` (stereo not given) [PHENIRAMINE MALEATE] the AC50 [3] was 15.8 µM (inconclusive).
With `Cc1c(C2(O)CCCCC2)[nH]c2cnccc12` the EC50 (Kallikrein-7) was > 69.5 µM (inactive).
In the case of `COc1ccc(-c2ccc3c(c2)[C@H]2[C@H](CCN2C(=O)C2CCCC2)[C@H](CO)N3C)cc1`, the AC50 [4] is reported as 1.97 µM (active), the AC50 [5] is reported as 16.1 µM (active) and the AC50 [6] is reported as 2.27 µM (active). For the same molecule, the AC50 [7] was 1.87 µM (active) and the AC50 [8] was 1.42 µM (active).
For `Nc1ccc2nc(-c3ccccc3)c(-c3ccccc3)nc2c1`, the EC50 (HEK293 [9]) was > 59.6 µM (inactive), the IC50 (CHO) was > 49.7 µM (inactive) and the EC50 [10] was 23.9 µM (inconclusive). The EC50 (HEK293 [11]) was > 59.6 µM (inactive) and the EC50 [12] was 24.9 µM (active).
In the case of `COc1ccc(C(CCNCc2ccccc2)c2ccc(F)cc2)cc1` (stereo not given), the CC50 [13] is reported as 14.6 µM (active), the EC50 [14] is reported as > 260 µM (inactive) and the CC50 [15] is reported as 18 µM (active). For the same molecule, the IC50 (cells) was 18.7 µM (active) and the CC50 [16] was 11.7 µM (active).
For `Nc1c(Cl)cc(Cl)cc1C(=O)OCC(=O)N1CCCC1`, the EC50 (Kallikrein-7) was > 69.5 µM (inactive).
For `Cn1cnc2c(NC3CCCC3)ncnc21`, the AC50 [3] was 1.41 µM (inconclusive), the AC50 (Cytochrome P450 3A4) was 25.1 µM (inconclusive) and the AC50 (Cytochrome P450 2D6) was 20 µM (inconclusive).
